Data reported in paper PMC12064818, “A general assay platform to study protein pharmacology using ligand-dependent structural dynamics” (Nature Communications, 2025).
Where “and” joins values, the source holds several entries; their conditions need not be identical. Identical values can stand only once.

Molecular target: FLuc-C-NLuc (firefly luciferase) (Photinus pyralis, UniProt P08659, form not given/L550V)
Assay: Firefly luciferase (FLuc) enzymatic luminescence assay, FLuc-C-NLuc
Assay type: biochemical
Set-up: key to Enz: % normalized; no enzyme control = 100% inhibition, DMSO = 0
Settings: for Enz: Log[Compound]
Description: The enzyme activity of FLuc-N-HiBiT, FLuc-C-HiBiT, and FLuc-C-NLuc was measured similar to P. pyralis firefly luciferase (FLuc) as previously described. […] Compounds and controls were added to each plate as described in Supplementary Data 8 with a Hornet pintool system (Wako Automation). Compounds were incubated with respective enzymes for 30–60 min at room temperature protected from light and covered by solid metal lid to prevent evaporation. […] Luciferin was incubated with FLuc enzyme for 5 min before FLuc activity was then measured on a ViewLux CCD imager (PerkinElmer), with exposure times up to ten seconds with medium to high gain settings. Data were normalized to average no enzyme control as 100% enzyme inhibition and average DMSO neutral control. See Supplementary Table 4 for additional details.
Supplementary Table 4. Protocol for Firefly luciferase (FLuc) and NanoLuc (NLuc) enzymatic
Supplementary Table 4: Protocol for Firefly luciferase (FLuc) and NanoLuc (NLuc) enzym atic lum inescence assay
Firefly luciferase (FLuc) enzym atic lum inescence assay
Sequence Param eter Value Description
No enzym e control (colum n 1) and enzym e solution (1- 10 nM FLuc enzym e) in FLuc assay
1 Reagent 4 µLbuffer; white/solid bottom , m edium bind, high base plates (Greiner), dispensed with BioRaptr
com pounds transferred to respective colum ns with Pintool
2b Test Com pounds 23 nLconcentration range) in colum ns 5- 48; com pounds transferred to respective wells with
3 Incubation 30 m in Incubate enzym e + com pounds at am bient tem p for 30 m in, protected from light
4 Reagent 3 µLAdd 3 µL of D-luciferin substrate solution to each well (final concentration 10 µM); dispensed
5 Detector ViewLux Read plate lum inescence (Exposure = 1- 10 sec; Gain = Medium -high; Speed = Slow;
Dispensing solution was diluted in 1X PBS, pH 7.4. […]

[1] = FLuc-C-NLuc (1 nM) + 10 mM ATP, 32.8 µM ligand

Sequence of FLuc-C-NLuc (firefly luciferase) (P08659 2-550 L550V, form open): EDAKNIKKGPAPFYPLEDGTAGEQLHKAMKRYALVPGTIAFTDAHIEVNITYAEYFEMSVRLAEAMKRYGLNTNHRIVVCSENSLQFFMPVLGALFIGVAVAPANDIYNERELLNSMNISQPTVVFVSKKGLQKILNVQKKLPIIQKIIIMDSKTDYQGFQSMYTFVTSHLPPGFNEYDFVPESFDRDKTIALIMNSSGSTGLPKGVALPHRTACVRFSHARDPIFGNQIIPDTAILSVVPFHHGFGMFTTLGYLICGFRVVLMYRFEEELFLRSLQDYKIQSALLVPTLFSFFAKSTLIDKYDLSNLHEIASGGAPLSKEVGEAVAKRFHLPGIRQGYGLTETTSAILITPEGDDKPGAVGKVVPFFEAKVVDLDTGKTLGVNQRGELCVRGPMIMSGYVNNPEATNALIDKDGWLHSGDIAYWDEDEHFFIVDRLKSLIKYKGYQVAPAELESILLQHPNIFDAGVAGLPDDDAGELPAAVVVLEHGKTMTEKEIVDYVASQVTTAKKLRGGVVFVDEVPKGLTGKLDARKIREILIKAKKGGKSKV

Work on `CC(CNC(=O)C1CCN(C(=O)c2ncn3c2COC(c2ccccc2)C3)CC1)c1ccccc1` (stereo not drawn) [compound 00449795] yielded an Enz (M -4.48) of -89.10, an Enz (M -4.96) of -73.93 and an Enz (M -5.44) of -56.58. The Enz (M -5.91) was -29.78, the Enz (M -6.39) was -11.92 and the Enz (M -6.87) was -0.00581. The Enz (M -7.35) was 4.23, the Enz (M -7.82) was 7.74 and the Enz (M -8.30) was 6.20. The Enz (M -8.78) was 3.71 and the Enz (M -9.25) was 4.09.

`O=C(O)c1cccc(-c2noc(-c3ccccc3F)n2)c1` [PTC124, reference compound] was tested, and the “Functional Enzymatic Assay” value (1 nM FLuc-C-NLuc, Log [PTC124], M -6.87, replicates) was 5.5 RLU and 5.8 RLU and 4.9 RLU and 5.4 RLU, the “pIC50, FLuc-C-NLuc (1 nM)” value (10 μM ATP) was 9.85 ± 0.03 and the “Standard assay statistics Ave RLU” value [1] was 18.2 RLU. The “Standard assay statistics S:B” value [1] was 48.3, the “Standard assay statistics S:N” value [1] was 14.7 and the “Standard assay statistics Z’” value [1] was 0.775. The “1 nM FLuc-C-NLuc Enz, Mean” value (Log [PTC124], M -4.48) was 0.85 RLU, the “1 nM FLuc-C-NLuc Enz, Mean” value (Log [PTC124], M -4.96) was 0.8 RLU and the “1 nM FLuc-C-NLuc Enz, Mean” value (Log [PTC124], M -5.44) was 1.3 RLU. For the same molecule, the “1 nM FLuc-C-NLuc Enz, Mean” value (Log [PTC124], M -5.91) was 1.6 RLU, the “1 nM FLuc-C-NLuc Enz, Mean” value (Log [PTC124], M -6.39) was 2.8 RLU and the “1 nM FLuc-C-NLuc Enz, Mean” value (Log [PTC124], M -6.87) was 5.9 RLU. The “1 nM FLuc-C-NLuc Enz, Mean” value (Log [PTC124], M -7.35) was 11.8 RLU, the “1 nM FLuc-C-NLuc Enz, Mean” value (Log [PTC124], M -7.82) was 27.4 RLU and the “1 nM FLuc-C-NLuc Enz, Mean” value (Log [PTC124], M -8.30) was 69.9 RLU. For the same molecule, the “1 nM FLuc-C-NLuc Enz, Mean” value (Log [PTC124], M -8.78) was 146.5 RLU, the “1 nM FLuc-C-NLuc Enz, Mean” value (Log [PTC124], M -9.25) was 188.2 RLU and the “1 nM FLuc-C-NLuc Enz, Mean” value (Log [PTC124], M -9.73) was 384.3 RLU. The “1 nM FLuc-C-NLuc Enz, Mean” value (Log [PTC124], M -10.21) was 641.6 RLU, the “1 nM FLuc-C-NLuc Enz, Mean” value (Log [PTC124], M -10.69) was 817.0 RLU and the “1 nM FLuc-C-NLuc Enz, Mean” value (Log [PTC124], M -11.16) was 872.5 RLU. The “1 nM FLuc-C-NLuc Enz, Mean” value (Log [PTC124], M -11.64) was 882.4 RLU.
